Data: article PMC4273943 (Molecular microbiology, 2011)

Target: CRP homolog RC1_3788 (CgrA) (Rhodospirillum centenum, UniProt B6IXV7)
Experiment: isothermal titration calorimetry
Type: binding

- Kd: 38.5 nM
Compound: Nc1nc2c(ncn2[C@@H]2O[C@@H]3COP(=O)(O)O[C@H]3[C@H]2O)c(=O)[nH]1 [cGMP]
